Counter-ions that a name gives are not always drawn. Like-named read-outs stand apart in the source and are kept apart here.
How the values were obtained:
NCI-28H cells [1] = settings: 72 hrs
NCI-28H cells [2] = tested on: NCI-28H cells
NCI-28H cells [3] = assay: Cytotoxicity assay (MTS) of NCI-28H cells: doxorubicin, cisplatin, paclitaxel, talc, talc bound to these drugs (Example 21); assay type: cell-based; settings: 72 hrs
Procedure: Compare survival rate between each formulation.
1. Set up 3 cytotoxicity plates for Day 2 experiment: trypsinize NCI-28H cells (T-75 flask, passage 12): • Remove old medium, wash cells with 7 ml DPBS, remove DPBS, add 2 ml trypsin, incubate plates for 1-2′, when cells detached add 6 ml fresh medium, mix cells and medium. • Count cells under the microscope using the glass slide. […] If we need 200 wells, in each well will be 5,000 cells in 0.1 ml; so total we need 1,000,000 cells in 20 ml. […] In 50 ml Falcon tube, combine 16.6 ml fresh medium and 3.4 ml cells. Gently mix.
3. […] Final solution is 500 μL of 20 μM.
1. […] Take out supernatant.
6. Check the plate and start incubation at 37° C./5% CO2
3. Wash cells 1×300 μL media, remove final wash.

Cc1c(N)nc([C@H](CC(N)=O)NCC(N)C(N)=O)nc1C(=O)N[C@H](C(=O)N[C@H](C)[C@@H](O)[C@H](C)C(=O)N[C@H](C(=O)NCCc1nc(-c2nc(C(=O)NCCC[S+](C)C)cs2)cs1)[C@@H](C)O)C(O[C@@H]1OC(CO)[C@@H](O)C(O)C1O[C@H]1OC(CO)[C@@H](O)C(OC(N)=O)C1O)c1c[nH]cn1 (some centres unmarked) [bleomycin, Bleomycin sulfate]
% survival NCI-28H cells after treatment with BLEOMYCIN (NCI-28H cells [1]; Bleomycin 0.004 ug/ml): 92.41%
% survival NCI-28H cells after treatment with BLEOMYCIN (NCI-28H cells [1]; Bleomycin 0.015 ug/ml): 88.25%
% survival NCI-28H cells after treatment with BLEOMYCIN (NCI-28H cells [1]; Bleomycin 0.06 ug/ml): 93.38%
% survival NCI-28H cells after treatment with BLEOMYCIN (NCI-28H cells [1]; Bleomycin 0.24 ug/ml): 91.86%
% survival NCI-28H cells after treatment with BLEOMYCIN (NCI-28H cells [1]; Bleomycin 0.97 ug/ml): 86.19%
% survival NCI-28H cells after treatment with BLEOMYCIN (NCI-28H cells [1]; Bleomycin 3.9 ug/ml): 71.05%
% survival NCI-28H cells after treatment with BLEOMYCIN (NCI-28H cells [1]; Bleomycin 15.6 ug/ml): 74.60%
% survival NCI-28H cells after treatment with BLEOMYCIN (NCI-28H cells [1]; Bleomycin 62.5 ug/ml): 68.76%
% survival NCI-28H cells after treatment with BLEOMYCIN (NCI-28H cells [1]; Bleomycin 250 ug/ml): 47.13%
% survival NCI-28H cells after treatment with BLEOMYCIN (NCI-28H cells [1]; Bleomycin 1000 ug/ml): 24.92%

Nc1ccn([C@@H]2O[C@H](CO)[C@@H](O)C2(F)F)c(=O)n1 [gemcitabine, Gemcitabine]
cytotoxic effect on NCI-28H cells (in words) (NCI-28H cells [2]): clear cytotoxic effect

COc1cccc2c1C(=O)c1c(O)c3c(c(O)c1C2=O)C[C@@](O)(C(=O)CO)C[C@@H]3O[C@H]1C[C@H](N)[C@H](O)[C@H](C)O1 [DOX, Doxorubicin Hydrochloride]
AVERAGE: cells + DOX (absorbance 490 nm) (NCI-28H cells [3]; DOX 0.2 μM): 0.89
AVERAGE: cells + DOX (absorbance 490 nm) (NCI-28H cells [3]; DOX 1 μM): 0.67
AVERAGE: cells + DOX (absorbance 490 nm) (NCI-28H cells [3]; DOX 5 μM): 0.63

N.N.[Cl][Pt][Cl] [cisplatin, Cisplatin]
Average reading: cells + cisplatin (absorbance 490 nm) (NCI-28H cells [3]; Cisplatin 0.0013 μM): 1.37
Average reading: cells + cisplatin (absorbance 490 nm) (NCI-28H cells [3]; Cisplatin 0.0064 μM): 1.19
Average reading: cells + cisplatin (absorbance 490 nm) (NCI-28H cells [3]; Cisplatin 0.8 μM): 1.23
Average reading: cells + cisplatin (absorbance 490 nm) (NCI-28H cells [3]; Cisplatin 4 μM): 1.18
Average reading: cells + cisplatin (absorbance 490 nm) (NCI-28H cells [3]; Cisplatin 20 μM): 0.48
Average reading: cells + cisplatin (absorbance 490 nm) (NCI-28H cells [3]; Cisplatin 100 μM): 0.59

Reference: patent publication US10925852B2, “Talc-bound compositions and uses thereof” (THE TRUSTEES OF COLUMBIA UNIVERSITY IN THE CITY OF NEW YORK, priority 2015, dated 2021)
